Laboratory results as given in US20020107248A1, “Method for treating patients with neoplasia by administering substituted sulfonyl indenyl acetic and propionic acids and esters thereof” (priority 1991, published 2002).

Test system: colonic bacteria

## CC1=C(CC(=O)O)c2cc(F)ccc2C1=Cc1ccc(S(C)(=O)=O)cc1 [Example 10, α-(1-ρ-Methylsulfonylbenzylidene)-2-Methyl-5-Fluoro-3-Indenyl-Acetic Acid]
  conversion of the sulfonyl compound in human fecal material: converted to an unknown derivative
